Residues, ends and D or L forms follow the SMILES beside them.
Legend:
HepG2 = type: cell-based, human; conditions: 48 h
Source text: (§1) Liver cancer cells (HuH7, HepG2, and H22) and human liver cells (HL-7702) were obtained from the Cell Bank of the Chinese Academy of Sciences (Shanghai, China). Fresh L. japonica was acquired from the South China Agricultural University (Guangzhou, China) and identified by Professor C. Wang (South China Agricultural University, Guangzhou, China). The annexin V-FITC/PI staining assay kit and propidium iodide (PI) reagents were supplied by Beyotime (Shanghai, China). Dulbecco’s modified Eagle medium (DMEM), fetal bovine serum (FBS), and penicillin-streptomycin (PS) were purchased from Gibco BRL (Life Technologies, Grand Island, NY, USA). The antibodies used in the current study were acquired from Cell Signaling Technology, Inc. (Manchester, NH, USA). Cell lines were grown in specific medium supplemented with 10% FBS. Cells were grown in a humidified atmosphere with 5% CO2 in incubators maintained at 37 °C. Balb/c mice (6–8 weeks old, 20 ± 2 g) were acquired from the Guangdong Experimental Animal Center. Ab MTT assay was used to detect the cytotoxicity activity of LJPs in vitro [42]. Briefly, 5 × 10^3 cells/well were seeded in 96-well plates, and varying concentrations of LJP were added. After 48 h, the MTT solution (5 mg/mL) was added for an additional 4 h. The absorbance was measured at 570 nm using a microplate reader (Bio-Rad; Hercules, CA, USA) after 100 μL of DMSO was added. The IC^50 values were determined by the non-linear multipurpose curve-fitting program.

HuH7 = type: cell-based, human; conditions: 48 h
Source text: as §1

H22 = type: cell-based; conditions: 48 h
Source text: as §1

in vitro = type: cell-based; conditions: human
Source text: as §1, with “Briefly, 5 × 10^3 cells/well were seeded in 96-well plates, and varying concentrations of LJP were added. After 48 h, the MTT solution (5 mg/mL) was added for an additional 4 h.” left out

Row | IC50 (HepG2) [µM] | IC50 (HuH7) [µM] | IC50 (H22) [µM] | IC50 at 48 h (in vitro) [µM] | SMILES
1 | 450 ± 50 | 480 ± 50 | 360 ± 30 | 7760 ± 710 | CC(C)C[C@H](NC(=O)[C@H](Cc1c[nH]cn1)NC(=O)[C@H](Cc1ccccc1)NC(=O)CNC(=O)[C@@H](N)CCC(=O)O)C(=O)O [LJP-1] (H-EGFHL-OH)
2 | 1710 ± 130 | 2250 ± 220 | 620 ± 50 | – | CC(C)C[C@H](N)C(=O)N[C@@H](Cc1c[nH]c2ccccc12)C(=O)N[C@@H](CCC(=O)O)C(=O)N[C@@H](Cc1c[nH]cn1)C(=O)N[C@@H](CO)C(=O)N[C@@H](Cc1c[nH]cn1)C(=O)O [LJP-2] (H-LWEHSH-OH)
3 | > 4000 | 1420 ± 120 | 1700 ± 150 | – | N=C(N)NCCC[C@H](NC(=O)[C@H](Cc1c[nH]cn1)NC(=O)[C@H](CO)NC(=O)[C@@H](N)Cc1ccccc1)C(=O)NCC(=O)N[C@@H](Cc1c[nH]cn1)C(=O)O [LJP-3] (H-FSHRGH-OH)
4 | 650 ± 70 | 620 ± 70 | 680 ± 70 | – | N[C@@H](CCC(=O)O)C(=O)NCC(=O)N[C@@H](Cc1c[nH]cn1)C(=O)NCC(=O)N[C@@H](Cc1ccccc1)C(=O)O [LJP-4] (H-EGHGF-OH)
5 | 2780 ± 260 | 2440 ± 220 | 1490 ± 130 | – | C[C@@H](O)[C@H](NC(=O)[C@H](CO)NC(=O)[C@@H](N)Cc1ccccc1)C(=O)N[C@@H](Cc1c[nH]cn1)C(=O)NCC(=O)NCC(=O)O [LJP-5] (H-FSTHGG-OH)
6 | 3060 ± 310 | > 4000 | > 4000 | – | NCCCC[C@H](NC(=O)[C@@H](N)Cc1ccccc1)C(=O)N[C@@H](CCC(=O)O)C(=O)N[C@@H](Cc1c[nH]cn1)C(=O)NCC(=O)N[C@@H](Cc1ccc(O)cc1)C(=O)O [LJP-6] (H-FKEHGY-OH)
7 | 1660 ± 110 | 2530 ± 240 | 1440 ± 120 | – | C[C@H](NC(=O)[C@H](Cc1c[nH]c2ccccc12)NC(=O)[C@H](CO)NC(=O)[C@H](Cc1ccc(O)cc1)NC(=O)CNC(=O)[C@H](C)NC(=O)[C@@H](N)Cc1c[nH]cn1)C(=O)O [LJP-7] (H-HAGYSWA-OH)
8 | 630 ± 50 | 440 ± 40 | 760 ± 80 | – | CC(C)[C@H](NC(=O)[C@H](Cc1ccc(O)cc1)NC(=O)[C@@H](NC(=O)[C@H](Cc1c[nH]cn1)NC(=O)[C@H](CO)NC(=O)[C@@H](N)Cc1ccccc1)[C@@H](C)O)C(=O)O [LJP-8] (H-FSHTYV-OH)
9 | 690 ± 80 | 530 ± 50 | 510 ± 70 | – | N[C@@H](Cc1ccccc1)C(=O)N[C@@H](CCC(=O)O)C(=O)N[C@@H](Cc1c[nH]cn1)C(=O)N[C@@H](CO)C(=O)NCC(=O)O [LJP-9] (H-FEHSG-OH)
10 | 2690 ± 220 | 3520 ± 350 | 3530 ± 340 | – | C[C@H](NC(=O)[C@@H](N)Cc1c[nH]cn1)C(=O)N[C@@H](CO)C(=O)N[C@@H](Cc1c[nH]c2ccccc12)C(=O)N[C@@H](CCC(=O)O)C(=O)N[C@@H](Cc1c[nH]cn1)C(=O)O [LJP-10] (H-HASWEH-OH)
11 | 610 ± 70 | 490 ± 50 | 700 ± 70 | – | N[C@@H](Cc1ccc(O)cc1)C(=O)N[C@@H](CCC(=O)O)C(=O)N[C@@H](Cc1c[nH]cn1)C(=O)N[C@@H](CO)C(=O)N[C@@H](Cc1c[nH]cn1)C(=O)NCC(=O)O [LJP-11] (H-YEHSHG-OH)
12 | 600 ± 80 | 410 ± 40 | 720 ± 50 | – | C[C@@H](O)[C@H](N)C(=O)N[C@@H](Cc1ccccc1)C(=O)N[C@@H](CCCCN)C(=O)N[C@@H](Cc1c[nH]cn1)C(=O)NCC(=O)O [LJP-12] (H-TFKHG-OH)

Source: PMC9698768, “Laminaria japonica Peptides Suppress Liver Cancer by Inducing Apoptosis: Possible Signaling Pathways and Mechanism” (Marine Drugs, 2022)
